Entries after “also recorded” stand apart in the source; their conditions may differ.
Assays:
Nav1.6 = biological target: T1, Nav1.6 (Homo sapiens, UniProt Q9UQD0); experiment: Surface plasmon resonance (SPR), Nav1.6-C-terminal tail; assay type: binding; settings: Langmuir 1:1 interaction model (KD=koff/kon)
T1 construct: SPR against FGF14 and Nav1.6-C-terminal tail purified proteins
Procedure: (§1) Secondary bioactivity assays: Surface plasmon resonance (SPR). Analogues were then tested using SPR against FGF14 and Nav1.6-C-terminal tail purified proteins, the gold standard for protein binding studies. SPR experiments were used to quantitatively assess the binding affinity of analogues, serving as both a secondary bioactivity assay to determine accurate binding affinities for protein:ligand interactions via KD, Kon and Koff, as well as to assess the compound's ability to disrupt PPI. The reliability of the model, goodness of fit, and reported kinetic and binding constants were validated by varying flow rates, immobilization densities, or different chips. Statistical analysis was conducted by visually inspecting the goodness of fit of the data from the residuals. Additionally, c2 was used as a global measure for residual noise; standard deviation was used to report errors in measurements by repeating the experiment at least three times.
FIGS. 2A and 2B summarize selectivity and orthogonal validation of hits from the screening assay. […] Compounds that modulated complex assembly by ≥25% were excluded from further studies. Referring to FIG. 2B, the remaining 5 selective hits were then quantitatively assessed using SPR. […]
Referring to FIG. 2B, the remaining 5 selective hits were then quantitatively assessed using SPR. […]

FGF14 = biological target: T2, FGF14 (Homo sapiens, UniProt Q92915); experiment: Surface plasmon resonance (SPR), FGF14; assay type: binding
T2 sequence (Q92915 1-252 isoform Q92915-2): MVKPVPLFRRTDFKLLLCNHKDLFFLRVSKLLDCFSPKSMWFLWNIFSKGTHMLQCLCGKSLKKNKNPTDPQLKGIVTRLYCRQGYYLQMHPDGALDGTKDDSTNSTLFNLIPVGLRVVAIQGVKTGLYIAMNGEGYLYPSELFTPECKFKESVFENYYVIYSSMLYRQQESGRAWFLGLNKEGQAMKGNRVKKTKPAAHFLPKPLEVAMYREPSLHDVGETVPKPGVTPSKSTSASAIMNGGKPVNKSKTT
Procedure: as §1
FIGS. 2A and 2B summarize selectivity and orthogonal validation of hits from the screening assay. […] Compounds that modulated complex assembly by ≥25% were excluded from further studies. Referring to FIG. 2B, the remaining 5 selective hits were then quantitatively assessed using SPR. Binding sensorgrams are shown for FGF14 (left) and Nav1.6 (middle) and normalized steady-state saturation plots (right) reveal differences in compound:protein binding affinities. Kinetic analysis of each ligand/analyte interaction was obtained by fitting the response data to the simplest Langmuir 1:1 interaction model (KD=koff/kon).
Referring to FIG. 2B, the remaining 5 selective hits were then quantitatively assessed using SPR. Binding sensorgrams are shown for FGF14 (left) and Nav1.6 (middle) and normalized steady-state saturation plots (right) reveal differences in compound:protein binding affinities. Kinetic analysis of each ligand/analyte interaction was obtained by fitting the response data to the simplest Langmuir 1:1 interaction model (KD=koff/kon).

[1] = biological target: T3, Nav1.6 (HEK-Nav1.6 expressing GFP control) (Homo sapiens, UniProt Q9UQD0); experiment: Patch-clamp electrophysiology in HEK-Nav1.6 cells expressing the GFP control construct; assay type: cell-based; settings: HEK-Nav1.6 expressing the GFP control construct; in words
T3 construct: patch clamp
Procedure: (§2) Confirmatory assays: Automated and manual patch-clamp electrophysiology in heterologous cells. Patch-clamp electrophysiology is a rigorous, sophisticated confirmatory and orthogonal assay that serves to assess compound functional activity, mechanism of action, specificity, and selectivity toward various Nav isoforms. It is highly predictive of in vivo efficacy of compounds. In this assay, compounds are tested in cells stably expressing FGF14 and Nav1.6 or other relevant iFGF:Nav channel pairs. Initially screened with an automated planar patch-clamp system, compounds were tested with an 8-point dose-response in 384-well plates with a throughput of >2,000 data sets/week. Compounds were then confirmed with manual patch-clamp at targeted concentrations. A multitude of physiological parameters of Nav channels including Na+ current amplitude, kinetics, voltage-dependence, use-dependency, and time-dependency reflecting the channel closed, opened, and inactivated states were automatically measured using specialized software (i.e., CLAMPEX). Data were typically derived from n=10-20 recordings, N=3 batches of cells. Data were compared using either Student's t-test or two-way ANOVA mixed model.
(§3) Functional activity of Compound PW01028. To study compound PW01028 functional activity against Nav1.6-encoded currents were studied in heterologous cells stably expressing Nav1.6 and/or FGF14-GFP (FIGURE). […]

FGF14:Nav1.6 complex = biological target: T4, FGF14:Nav1.6 complex (Homo sapiens, UniProt Q92915+Q9UQD0); experiment: Split-luciferase complementation assay (LCA); assay type: cell-based
T4 construct: split firefly luciferase complementation
Excerpt: To identify small molecule probes targeting the FGF14:Nav1.6 PPI interface, the FGF14:Nav1.6 complex was reconstituted using the split-luciferase complementation assay (LCA), and a candidate pool of ~45,000 commercially available compounds was screened. An established screening pipeline was employed to validate hits. […] FIG. 1B summarizes exclusion of compounds based on the CellTiter Blue (CTB) cell viability fluorescence assay.
Primary assays: Split-luciferase complementation assay (LCA). The primary assay to detect FGF14:Nav1.6 complex formation in real-time in living cells is the split-luciferase complementation assay (LCA), which has been designed and successfully implemented specifically to study PPI between the Nav channel and iFGFs. With LCA, in-cell reconstitution of the FGF14:Nav1.6 channel complex was detected upon addition of the D-luciferin substrate, as a robust light signal representing the strength of interaction between the two binding partners. […] The high signal-to-noise ratio, favorable dynamic range, and reversibility of luminescence-based signals make LCA the ideal for HTS of potential regulators, as well as rapid dose-dependency studies (≥8 concentrations) to help guide subsequent in-depth hit validation using more labor-intensive approaches. […]

[2] = system: medium spiny neurons (MSN), Fgf14^+/+; experiment: Patch-clamp electrophysiology in brain slices, MSN of NAc from Fgf14+/+ mice; assay type: cell-based; settings: 1 micromolar, in words
Procedure: (§4) Patch-clamp electrophysiology in brain slices. This assay provides a critical confirmatory step from the heterologous cell to the native system. With this assay, selected compounds were tested (typically, 3 concentrations) for their modulatory effects on MSN firing and Na+ currents using current clamp and voltage clamp recordings Parameters of interest included action potential threshold, amplitude, rise time, firing frequency, amplitude of Na+ currents and passive properties (i.e., Rseries, Rinput, Vm). Not only is this assay predictive of a compound's in vivo activity, it provides an assessment of potential toxicity and side effects based on secondary measurements (i.e., frequency, amplitude, and kinetics of synaptic potentials, Rinput, Vm). This assay was also used as the first target validation step in native tissue as compounds are concomitantly tested in neurons from Fgf14^−/− mice. Recordings were conducted from at least N=3 animals, n=10-15 recordings; effect is calculated using ANOVA mixed model.
(§5) Target validation of compound PW01028 in NAc slices.

[3] = system: medium spiny neurons (MSN), Fgf14^−/−; experiment: Patch-clamp electrophysiology in brain slices, MSN of NAc from Fgf14-/- mice; assay type: cell-based; settings: n=7-8/group, p>0.05, in words
Procedure: as §4, §5

[4] = system: Nav1.6 (cells stably expressing Nav1.6 and FGF14-GFP); experiment: Patch-clamp electrophysiology in heterologous cells expressing Nav1.6 and FGF14; assay type: cell-based; settings: 1 μM
Procedure: as §2, §3

T4 sequence (Q9UQD0 1763-1980 limits assumed, one chain of several): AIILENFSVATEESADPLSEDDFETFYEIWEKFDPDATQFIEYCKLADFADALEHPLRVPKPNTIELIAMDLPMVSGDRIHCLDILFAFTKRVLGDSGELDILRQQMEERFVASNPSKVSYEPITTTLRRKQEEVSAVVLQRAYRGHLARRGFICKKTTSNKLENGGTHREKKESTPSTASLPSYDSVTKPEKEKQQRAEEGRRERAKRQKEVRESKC
T3 sequence (Q9UQD0 whole entry): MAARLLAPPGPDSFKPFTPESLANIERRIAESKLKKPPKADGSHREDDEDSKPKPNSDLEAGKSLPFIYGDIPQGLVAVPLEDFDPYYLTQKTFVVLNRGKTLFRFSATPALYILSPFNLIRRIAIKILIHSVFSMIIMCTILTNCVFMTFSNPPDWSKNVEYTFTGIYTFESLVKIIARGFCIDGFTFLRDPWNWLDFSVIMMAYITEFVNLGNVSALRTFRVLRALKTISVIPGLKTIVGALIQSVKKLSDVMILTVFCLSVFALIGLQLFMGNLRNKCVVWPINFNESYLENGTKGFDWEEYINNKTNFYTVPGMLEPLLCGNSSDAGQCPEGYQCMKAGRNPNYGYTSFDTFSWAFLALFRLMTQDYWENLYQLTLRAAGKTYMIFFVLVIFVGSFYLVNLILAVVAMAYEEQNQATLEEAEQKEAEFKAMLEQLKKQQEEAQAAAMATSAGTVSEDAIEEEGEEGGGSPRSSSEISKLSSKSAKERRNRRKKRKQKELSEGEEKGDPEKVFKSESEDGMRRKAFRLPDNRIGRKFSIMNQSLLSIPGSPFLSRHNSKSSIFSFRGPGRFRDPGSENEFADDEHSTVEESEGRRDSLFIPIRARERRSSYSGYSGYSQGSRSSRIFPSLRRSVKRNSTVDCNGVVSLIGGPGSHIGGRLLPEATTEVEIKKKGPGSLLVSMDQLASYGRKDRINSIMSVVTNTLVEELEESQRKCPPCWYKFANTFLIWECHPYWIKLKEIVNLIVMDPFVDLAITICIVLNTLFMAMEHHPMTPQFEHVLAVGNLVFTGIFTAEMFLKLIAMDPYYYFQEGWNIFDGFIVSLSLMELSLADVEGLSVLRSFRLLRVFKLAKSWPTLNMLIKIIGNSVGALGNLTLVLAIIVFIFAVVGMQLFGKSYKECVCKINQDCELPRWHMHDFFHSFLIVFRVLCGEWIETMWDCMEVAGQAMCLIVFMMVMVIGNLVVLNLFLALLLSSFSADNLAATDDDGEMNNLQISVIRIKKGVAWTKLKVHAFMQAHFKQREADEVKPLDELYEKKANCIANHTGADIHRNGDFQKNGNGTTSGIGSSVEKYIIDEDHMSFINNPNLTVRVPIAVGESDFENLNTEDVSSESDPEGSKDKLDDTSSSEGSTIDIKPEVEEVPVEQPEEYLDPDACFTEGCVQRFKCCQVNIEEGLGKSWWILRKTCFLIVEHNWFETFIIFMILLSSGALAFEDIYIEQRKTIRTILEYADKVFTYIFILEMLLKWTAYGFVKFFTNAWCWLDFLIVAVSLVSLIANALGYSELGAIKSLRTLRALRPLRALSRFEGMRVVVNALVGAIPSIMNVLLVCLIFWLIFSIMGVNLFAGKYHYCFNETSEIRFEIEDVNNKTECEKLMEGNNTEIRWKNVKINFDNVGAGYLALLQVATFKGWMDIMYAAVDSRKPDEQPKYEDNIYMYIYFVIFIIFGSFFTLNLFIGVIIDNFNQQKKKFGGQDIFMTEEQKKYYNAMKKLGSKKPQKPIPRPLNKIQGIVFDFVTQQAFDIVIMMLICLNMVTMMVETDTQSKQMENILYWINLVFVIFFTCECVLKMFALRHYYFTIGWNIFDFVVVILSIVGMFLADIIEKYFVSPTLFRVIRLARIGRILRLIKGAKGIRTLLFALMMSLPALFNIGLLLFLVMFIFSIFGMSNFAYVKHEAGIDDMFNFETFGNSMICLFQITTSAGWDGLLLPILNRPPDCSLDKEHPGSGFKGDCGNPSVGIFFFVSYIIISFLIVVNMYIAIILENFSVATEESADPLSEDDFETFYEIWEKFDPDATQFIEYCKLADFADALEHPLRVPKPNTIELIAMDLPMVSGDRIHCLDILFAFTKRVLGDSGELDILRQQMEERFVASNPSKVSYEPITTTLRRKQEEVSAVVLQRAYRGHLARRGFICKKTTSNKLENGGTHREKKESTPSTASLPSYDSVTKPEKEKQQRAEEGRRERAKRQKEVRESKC
T1 sequence (Q9UQD0 1767-1912 limits assumed): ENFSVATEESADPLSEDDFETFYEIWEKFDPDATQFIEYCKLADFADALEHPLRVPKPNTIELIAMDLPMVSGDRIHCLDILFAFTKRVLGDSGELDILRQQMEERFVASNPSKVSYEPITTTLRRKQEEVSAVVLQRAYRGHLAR

Row | Kd (Nav1.6) [nM] | Kd (FGF14; Langmuir 1:1 interaction model (KD=koff/kon)) [nM] | functional effects [1] | IC50 (FGF14:Nav1.6 complex; LCA, read-out: IC50 for modulation of FGF14:Nav1.6 complex formation) [nM] | potency in the LCA dose-response studies (FGF14:Nav1.6 complex; dose-response, in words) | binding affinity to FGF14 (FGF14; in words) | SMILES | ligand binding to the FGF14 R117 residue (FGF14; in words) | effect on Nav channel closure / Na+ currents in MSN ([2]; Fgf14+/+ (wild-type) mice) | effect on MSN firing ([2]; Fgf14+/+ mice, n=19-20/group, p<0.0001) | effect on MSN firing / Na+ currents [3] | depolarizing shift in the voltage-dependence of steady-state inactivation of the transient Na+ current ([4]; FGF14-mediated regulatory effects on Nav1.6) | effect on voltage-dependence (V1/2) of steady-state inactivation ([4]; in words, n=6-10 cells/group)
1 | 13600 | 2900 | – | – | – | – | Cc1cccc(NC(=O)Cn2cc(CO)c3ccccc32)c1 [Compound 7605086, 2-(3-(Hydroxymethyl)-1H-indol-1-yl)-N-(m-tolyl)acetamide] | – | – | – | – | – | –
2 | – | – | no functional effects | ~250 | nanomolar potency | nanomolar binding affinity | CCOC(=O)c1cccc(NC(=O)Cn2cc(CO)c3ccccc32)c1 [PW01028, Ethyl 3-(2-(3-(hydroxymethyl)-1H-indol-1-yl)acetamido)benzoate] | evidence for ligand binding to the FGF14^R117 residue | potentiated MSN firing and transient Na^+ currents (INaP); also recorded: hampered Nav channel closure, prolonged Na+ currents | potentiated MSN firing; also recorded: increases firing in MSN; also recorded: potentiated intrinsic firing | inactive in MSN from Fgf14^−/− mice; also recorded: Lack of effect; also recorded: absent in Fgf14^−/− mice | +15 mV | markedly shifted V1/2 and steady-state inactivation to a more depolarized potential; also recorded: shifts voltage-dependence of steady-state inactivation of Na+ currents

Reference: patent publication US20260297027A1, “Non-Peptide Small Molecule FGF14:Nav1.6 Channel Complex Protein-Protein Interaction Modulators” (The Board of Regents of The University of Texas System, priority 2023, published 2026)
